In the NIST ThermoML archive (doi:10.1021/je060501l):
Numbers after ± are expanded uncertainties.

Conditions: Liquid

Row | SMILES | vapor or sublimation pressure (273.15 K) [kPa] | vapor or sublimation pressure (283.15 K) [kPa] | vapor or sublimation pressure (293.15 K) [kPa] | vapor or sublimation pressure (303.15 K) [kPa] | vapor or sublimation pressure (313.15 K) [kPa]
1 | CC(F)F [1,1-difluoroethane] | 265.8 ± 8.6 | 372.8 ± 12 | 513.3 ± 16 | 689.9 ± 22 | 909.4 ± 28
2 | CCC [propane] | 472.5 ± 15 | 633.9 ± 20 | 832.94 ± 26 | 1077 ± 34 | 1370 ± 43
